{
  "source": "patent US20080076772A1",
  "about": "“Anti-Inflammatory Agents” (Pharma Mar S.A. Sociedad Unipersonal, priority 2004, published 2008)",
  "key": {"blood monocytes": {"tested_on": "blood monocytes", "experiment": "in vitro", "conditions": "48 h", "experimental": "Purified populations of human blood monocytes were prepared as previously described by differential density centrifugation on Ficoll and Percoll gradients (see Allavena, P., Piemonti, L., Longoni, D., Bernasconi, S., Stoppacciaro, A., Ruco, L., and Mantovani, A. IL-10 prevents the differentiation of monocytes to dendritic cells but promotes their maturation to macrophages. Eur J Immunol, 28: 359-369, 1998). […] Human thymocytes were isolated from resected thymus from pediatric patients undergoing surgery. Thymocytes were obtained by teasing and isolated on Percoll gradient.\nCells were cultured at 10^6 cells/ml in complete medium RPMI (Biochrom, Berlin, FRG)+10% FCS (Hyclone, Logan, Utah). In vitro differentiated macrophages were obtained by culture of monocytes Monocyte-Colony Stimulating Factor (M-CSF) Peprotech (20 ng/ml), for 5 days. In some experiments, macrophages were treated with LPS (100 ng/ml) Sigma Aldrich, IFN gamma (500 IU/ml) or IL-4 (20 ng/ml) (Schering Plough) for 24 h.\nCell viability was analyzed by DNA content in Flow Cytometry\nCells exposed to treatments were fixed with ethanol 70%, washed in PBS and stained with propidium iodide (PI) solution containing 10 ug/ml PI in PBS and 25 μl RNAse 10,000 units, overnight in the dark. PI incorporation was evaluated on at least 20,000 cells/sample using a FACS Calibur instrument (Becton Dickinson, Sunnyvale, Calif., USA), with a bandpass filter at 620 nm. Apoptosis was detected by staining with AnnexinV and PI. FACS analysis was performed using a bandpass filter 530 and 620 nm for green (AnnexinV) and red (PI) fluorescence respectively, in combination with a […] dichroic mirror.\nPurified preparations of blood monocytes, lymphocytes and thymocytes were cultured with different concentrations of ecteinascidin 743 for 48 h. Cell viability was assessed by DNA analysis and propidium iodide (PI) staining in Flow cytometry.\nA kinetics analysis of the cytotoxic effect of ecteinascidin 743 was performed in the presence of M-CSF. Cells were treated with M-CSF (20 ng/ml) and different concentrations of ecteinascidin 743. Samples were collected at the indicated times and tested for DNA analysis.\nViability was assessed by PI staining and analyzed by Flow Cytometry."}, "CCL2 [1]": {"tested_on": "CCL2", "experiment": "CCL2 production by LPS-stimulated monocytes (ELISA)", "assay_type": "cell-based, human", "conditions": "24 h-incubation", "experimental": "Supernatants of untreated cells or cells treated with ecteinascidin 743 or other anti-neoplastic agents were collected after 24 h culture and frozen. Monocytes, macrophages and TAM were stimulated with 100 ng/ml LPS to induce maximal cytokine production. Determination of cytokines CCL2, TNF and IL-6 was measured by specific ELISA following the manufacturer's instructions.\nMonocytes and in vitro differentiated macrophages were stimulated with LPS (100 ng/ml). After 1 h LPS stimulation they were treated with ecteinascidin 743. After 16 h incubation, cell supernatants were harvested and tested in ELISA. Under these treatment conditions cell viability was usually >85% for concentrations up to 5 nM. […] Mean inhibition at 5 nM, for monocytes, was 65% (range 50-80%, n=5) and was 50% (range 25-75%, n=5) for in vitro differentiated macrophages. Results are mean+/−SE of 3-5 experiments\nSimilar results were obtained when monocytes were stimulated with LPS (100 ng/ ml) and treated with ET743 and the other ecteinascidin compounds, although the overall inhibition was less marked compared with the previous experiment where the tumor supernantant was used as CCL2-inducing stimulus.\nCCL2 and TNF production by LPS-stimulated monocytes treated with the indicated doses of the anti-tumor agents was also tested. Cell supernatants were harvested after 24 h-incubation and tested in ELISA. […] None of these compounds interfered with the production of TNF.\nA major finding of our work is the inhibitory activity of ecteinascidin 743 on the production of inflammatory cytokines. Among various inflammatory cytokines produced by monocyte/macrophages we have tested IL-6, TNF and the chemokine CCL2. CCL2 is a chemokine attracting monocytes and other leukocyte subsets, and is produced both by monocyte/macrophages and several tumour cells. It has been described that ovarian adenocarcinoma cells produce huge amounts of CCL2 and that their levels correlate with the macrophage content of tumours. CCL2 is therefore one of the most important factors regulating monocyte/macrophages recruitment at the tumour site. […] Thus, lower levels of CCL2 by TAM and tumour cells are likely to reduce the number of macrophages recruited at the tumour site. In the above described in vitro experiments ecteinascidin 743 was present throughout the 16-h culture period. We also checked whether a shorter in vitro exposure to ecteinascidin 743 was sufficient to affect cytokine production. Monocytes exposed to ecteinascidin 743 were washed after 1 hour culture and replaced in fresh medium."}, "CCL2 [2]": {"tested_on": "CCL2", "experiment": "CCL2 production induced by exposure of monocytes to tumor cell supernatants", "assay_type": "cell-based, human", "experimental": "We also tested five other ecteinascidin compounds (Table 2) for their capacity to inhibit the production of CCL2 by human monocytes in vitro. […] The extent of inhibition of ET637 Derivative A was even more pronouced compared to ET743. In Table 2 is shown that the production of CCL2, induced by exposure of monocytes to tumor cell supernatants, is inhibited up to 80% and 97% at 2.5 and 5 nM, respectively, in two different donors. In the same experiment ET743 inhibited between 30% and 70%."}},
  "data": [
    {"smiles": "N.N.[Cl][Pt][Cl]", "note": "[Cisplatin, reference compound]", "values": [
      {"measurement": "toxicity on monocytes", "setting": "blood monocytes; very high concentrations (40 μM)", "result": "Significant toxicity"},
      {"measurement": "effect on CCL2 production by LPS-stimulated monocytes", "setting": "CCL2 [1]; 10 μM", "result": "reduced CCL2 production"}
    ]},
    {"smiles": "COc1cccc2c1C(=O)c1c(O)c3c(c(O)c1C2=O)C[C@@](O)(C(=O)CO)C[C@@H]3O[C@H]1C[C@H](N)[C@H](O)[C@H](C)O1", "note": "[Doxorubicin, reference compound]", "values": [
      {"measurement": "effect on CCL2 production by LPS-stimulated monocytes", "setting": "CCL2 [1]; indicated doses (FIG. 9B)", "result": "ineffective"}
    ]},
    {"smiles": "COc1c(C)cc2c(c1O)C1C3[C@@H]4SCC(=O)C(=O)OC[C@@H](c5c6c(c(C)c(OC(C)=O)c54)OCO6)N3[C@@H](O)[C@H](C2)N1C", "note": "(some centres unmarked) [ET594]", "values": [
      {"measurement": "% inhibition of CCL2 production, Donor A", "setting": "CCL2 [2]; 5 nM", "result": 25, "unit": "%"},
      {"measurement": "% inhibition of CCL2 production, Donor A", "setting": "CCL2 [2]; 10 nM", "result": 25, "unit": "%"}
    ]},
    {"smiles": "COc1cc2c(cc1O)CCN[C@]21CS[C@@H]2c3c(OC(C)=O)c(C)c4c(c3[C@H](COC1=O)N1C[C@@H]3Cc5cc(C)c(OC)c(O)c5[C@H]([C@H]21)N3C)OCO4", "note": "[ET745]", "values": [
      {"measurement": "inhibition at 0.005 µM", "setting": "CCL2 [2]; Homo sapiens, Monocyte, read-out: % inhibition of CCL2 production, Donor A", "result": 23, "unit": "%"}
    ]},
    {"smiles": "CC(=O)O[C@H]1C(=O)[C@@]2(C)[C@H]([C@H](OC(=O)c3ccccc3)[C@]3(O)C[C@H](OC(=O)[C@H](O)[C@@H](NC(=O)c4ccccc4)c4ccccc4)C(C)=C1C3(C)C)[C@]1(OC(C)=O)CO[C@@H]1C[C@@H]2O", "note": "[Taxol, reference compound]", "values": [
      {"measurement": "toxicity on monocytes", "setting": "blood monocytes; 300 nM", "result": "ineffective"},
      {"measurement": "effect on CCL2 production by LPS-stimulated monocytes", "setting": "CCL2 [1]; indicated doses (FIG. 9B)", "result": "ineffective"}
    ]}
  ]
}
